Reference: US9079866B2, “Flap modulators” (JANSSEN PHARMACEUTICA NV, priority 2013, dated 2015)

Experiments:
[1] = system: leukotriene pathway in human whole blood (LTB4 levels); experiment: Human whole blood assay (A23187-stimulated LTB4); type: cell-based; settings: Homo sapiens, human whole blood diluted 1:1, A23187-stimulated; read-out: LTB4 IC50 1:1
Method in brief: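 Single-replicate data from at least one healthy donor: compound pre-incubated 15 min at 37° Celsius in 1:1 RPMI-diluted heparinised blood, followed by 30 min calcium ionophore A23187 (7 μg/mL) challenge at 37° Celsius. LTB4 in plasma quantified by kit; IC50 via 4-parameter equation.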

human FLAP = human FLAP (Homo sapiens (Human), UniProt P20292); experiment: FLAP binding assay (HTRF format); settings: wild type FLAP, HTRF format
human FLAP, sequence (P20292 whole entry): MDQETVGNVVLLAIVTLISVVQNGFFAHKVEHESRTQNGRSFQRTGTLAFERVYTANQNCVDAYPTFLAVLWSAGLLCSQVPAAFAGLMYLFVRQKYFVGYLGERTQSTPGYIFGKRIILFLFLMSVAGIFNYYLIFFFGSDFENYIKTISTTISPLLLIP
Method in brief: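 Read-out is the HTRF ratio. Each reported figure averages two assay plates on which samples were tested in duplicate.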

IC50 [1] | Ki (human FLAP) | SMILES
> 10000 nM | 27.6 nM | Nc1cnc(-c2ccc(-c3ccc(C(F)(F)F)cc3C(=O)O)cc2F)cn1 [Example 603, 4′-(5-Aminopyrazin-2-yl)-3′-fluoro-4-(trifluoromethyl)biphenyl-2-carboxylic acid]
89.4 nM | 5 nM | Nc1cnc(-c2ccc(-c3ccc(C(F)(F)F)cc3C=O)cc2F)cn1 [Example 604, 4′-(5-Aminopyrazin-2-yl)-3′-fluoro-4-(trifluoromethyl)biphenyl-2-carbaldehyde]
97.8 nM | 1.9 nM | Nc1cnc(-c2ccc(-c3ccc(C(F)(F)F)cc3CN3CCOCC3)cc2F)cn1 [Example 605, 5-[3-Fluoro-2′-(morpholin-4-ylmethyl)-4′-(trifluoromethyl)biphenyl-4-yl]pyrazin-2-amine]
2620 nM | 46.3 nM | Nc1cnc(-c2ccc(-c3ccc(C(F)(F)F)cc3CN3CCC(N)CC3)cc2F)cn1 [Example 606, 5-{2′-[(4-Aminopiperidin-1-yl)methyl]-3-fluoro-4′-(trifluoromethyl)biphenyl-4-yl}pyrazin-2-amine]
152 nM | 138 nM | Nc1cnc(-c2ccc(-c3ccc(C(F)(F)F)cc3CNCCO)cc2F)cn1 [Example 607, 2-({[4′-(5-Aminopyrazin-2-yl)-3′-fluoro-4-(trifluoromethyl)biphenyl-2-yl]methyl}amino)ethanol]
53.9 nM | 28.7 nM | Cc1cc(C)nc(Oc2ccccc2-c2ccc(-c3cnc(N)cn3)c(F)c2)n1 [Example 608, 5-{2′-[(4,6-Dimethylpyrimidin-2-yl)oxy]-3-fluorobiphenyl-4-yl}pyrazin-2-amine]
768 nM | 246 nM | Cc1cc(C)nc(Oc2ccccc2-c2ccc(-c3cnc(N)nc3)c(F)c2)n1 [Example 609, 5-{2′-[(4,6-Dimethylpyrimidin-2-yl)oxy]-3-fluorobiphenyl-4-yl}pyrimidin-2-amine]
117 nM | 27.4 nM | Nc1cnc(-c2ccc(-c3ccccc3Oc3ccnc(C(F)(F)F)c3)cc2F)cn1 [Example 610, 5-(3-Fluoro-2′-{[2-(trifluoromethyl)pyridin-4-yl]oxy}biphenyl-4-yl)pyrazin-2-amine]
563 nM | 249 nM | Nc1ncc(-c2ccc(-c3ccccc3Oc3ccnc(C(F)(F)F)c3)cc2F)cn1 [Example 611, 5-(3-Fluoro-2′-{[2-(trifluoromethyl)pyridin-4-yl]oxy}biphenyl-4-yl)pyrimidin-2-amine]
42 nM | 14.6 nM | Nc1cnc(-c2ccc(-c3ccccc3Oc3nccc(C(F)(F)F)n3)cc2F)cn1 [Example 612, 5-(3-Fluoro-2′-{[4-(trifluoromethyl)pyrimidin-2-yl]oxy}biphenyl-4-yl)pyrazin-2-amine]
556 nM | 215 nM | Nc1ncc(-c2ccc(-c3ccccc3Oc3nccc(C(F)(F)F)n3)cc2F)cn1 [Example 613, 5-(3-Fluoro-2′-{[4-(trifluoromethyl)pyrimidin-2-yl]oxy}biphenyl-4-yl)pyrimidin-2-amine]
211 nM | 14.6 nM | N#Cc1cccc(Oc2ccccc2-c2ccc(-c3cnc(N)nc3)c(F)c2)n1 [Example 618, 6-{[4′-(2-Aminopyrimidin-5-yl)-3′-fluorobiphenyl-2-yl]oxy}pyridine-2-carbonitrile]
45.1 nM | 3.4 nM | N#Cc1cccc(Oc2ccccc2-c2ccc(-c3cnc(N)cn3)c(F)c2)n1 [Example 619, 6-{[4′-(5-Aminopyrazin-2-yl)-3′-fluorobiphenyl-2-yl]oxy}pyridine-2-carbonitrile]
13.2 nM | 1.9 nM | Nc1ccc(Oc2ccccc2-c2ccc(-c3cnc(N)cn3)c(F)c2)nc1 [Example 620, 5-{2′-[(5-Aminopyridin-2-yl)oxy]-3-fluorobiphenyl-4-yl}pyrazin-2-amine]
101 nM | 5 nM | Nc1ccc(Oc2ccccc2-c2ccc(-c3cnc(N)nc3)c(F)c2)nc1 [Example 621, 5-{2′-[(5-Aminopyridin-2-yl)oxy]-3-fluorobiphenyl-4-yl}pyrimidin-2-amine]
340 nM | 46.1 nM | Cc1nc(N)cc(Oc2ccccc2-c2ccc(-c3cnc(N)nc3)c(F)c2)n1 [Example 622, 5-{2′-[(6-Amino-2-methylpyrimidin-4-yl)oxy]-3-fluorobiphenyl-4-yl}pyrimidin-2-amine]
93.5 nM | 4.9 nM | Cc1nc(N)cc(Oc2ccccc2-c2ccc(-c3cnc(N)cn3)c(F)c2)n1 [Example 623, 6-{[4′-(5-Aminopyrazin-2-yl)-3′-fluorobiphenyl-2-yl]oxy}-2-methylpyrimidin-4-amine]
173 nM | 7.8 nM | Nc1cnc(-c2ccc(-c3ccccc3Oc3cccc(C(F)(F)F)n3)cc2F)cn1 [Example 625, 5-(3-Fluoro-2′-{[6-(trifluoromethyl)pyridin-2-yl]oxy}biphenyl-4-yl)pyrazin-2-amine]
45.3 nM | 6.2 nM | N#Cc1ccc(Oc2ccccc2-c2ccc(-c3cnc(N)cn3)c(F)c2)nc1 [Example 626, 6-{[4′-(5-Aminopyrazin-2-yl)-3′-fluorobiphenyl-2-yl]oxy}pyridine-3-carbonitrile]
366 nM | 43.7 nM | N#Cc1ccc(Oc2ccccc2-c2ccc(-c3cnc(N)nc3)c(F)c2)nc1 [Example 627, 6-{[4′-(2-Aminopyrimidin-5-yl)-3′-fluorobiphenyl-2-yl]oxy}pyridine-3-carbonitrile]
107 nM | 4.6 nM | Nc1cnc(-c2ccc(-c3ccccc3Oc3cc(C4CC4)ncn3)cc2F)cn1 [Example 636, 5-{2′-[(6-Cyclopropylpyrimidin-4-yl)oxy]-3-fluorobiphenyl-4-yl}pyrazin-2-amine]
398 nM | 18.8 nM | Nc1ncc(-c2ccc(-c3ccccc3Oc3cc(C4CC4)ncn3)cc2F)cn1 [Example 637, 5-{2′-[(6-Cyclopropylpyrimidin-4-yl)oxy]-3-fluorobiphenyl-4-yl}pyrimidin-2-amine]
14.8 nM | 1.4 nM | Nc1cnc(-c2ccc(-c3ccccc3Oc3ccnc(N)c3)cc2F)cn1 [Example 638, 5-{2′-[(2-Aminopyridin-4-yl)oxy]-3-fluorobiphenyl-4-yl}pyrazin-2-amine]
67 nM | 7.2 nM | Nc1cc(Oc2ccccc2-c2ccc(-c3cnc(N)nc3)c(F)c2)ccn1 [Example 639, 5-{2′-[(2-Aminopyridin-4-yl)oxy]-3-fluorobiphenyl-4-yl}pyrimidin-2-amine]
981 nM | 78.8 nM | N#CCOc1ccccc1-c1ccc(-c2cnc(N)cn2)c(F)c1 [Example 642, {[4′-(5-Aminopyrazin-2-yl)-3′-fluorobiphenyl-2-yl]oxy}acetonitrile]
4290 nM | 322 nM | N#CCOc1ccccc1-c1ccc(-c2cnc(N)nc2)c(F)c1 [Example 643, {[4′-(2-Aminopyrimidin-5-yl)-3′-fluorobiphenyl-2-yl]oxy}acetonitrile]
1540 nM | 306 nM | Nc1ncc(-c2ccc(-c3cccnc3O[C@H]3CC[C@H](N)CC3)cc2F)cn1 [Example 651, 5-(4-{2-[(trans-4-Aminocyclohexyl)oxy]pyridin-3-yl}-2-fluorophenyl)pyrimidin-2-amine]
